Values after ≈ are worked out from the molar mass of the structure shown. Read-outs that look alike come from different tables or passages of the source.
Assays:
[1] = Aqueous solubility measurement; type: physicochemical; conditions: for solubility: distilled or deionized water; for solubility, single assay: water
Procedure: Then, distilled or deionized water was added under gentle agitation until total dissolution. All the experiments were performed in triplicate.

plasmatic TTR = conditions: Phase IIa, FAP patients; cited from earlier work
[2] = assays 1-3 of triplicate, read-out: solubility, single assay
[3] = average of triplicate, read-out: solubility, average

| melting point [°C] | Structure (SMILES) | solubility [1, 2] [µg/mL] | solubility [1, 3] [µg/mL] | solubility, single assay ([1]; assays 1-3 of triplicate) [µg/mL] | Adverse events (plasmatic TTR) |
| --- | --- | --- | --- | --- | --- |
| 68 to 71 | O=C(c1ccc(C(F)(F)F)cc1)c1cc(O)c(O)c([N+](=O)[O-])c1 [Compound M-14, (3,4-Dihydroxy-5-nitrophenyl)-[4-(trifluoromethyl)phenyl]methanone] | – | – | – | – |
| 135 to 137 | O=C(c1cc(F)cc(F)c1)c1cc(O)c(O)c([N+](=O)[O-])c1 [Compound M-21, (3,5-Difluorophenyl)-(3,4-dihydroxy-5-nitrophenyl)methanone] | – | – | – | – |

More lines, now with the values behind:

| Structure (SMILES) | melting point [°C] | solubility [1, 2] [µg/mL] | solubility [1, 3] [µg/mL] | solubility, single assay ([1]; assays 1-3 of triplicate) [µg/mL] | Adverse events (plasmatic TTR) |
| --- | --- | --- | --- | --- | --- |
| O=C(c1cc(Cl)cc(Cl)c1)c1cc(O)c(O)c([N+](=O)[O-])c1 [Compound M-20, (3,5-Dichlorophenyl)-(3,4-dihydroxy-5-nitrophenyl)methanone] | 182 to 184 | – | – | – | – |
| O=C(c1cc(O)cc(F)c1)c1cc(O)c(O)c([N+](=O)[O-])c1 [Compound M-23, (3,4-Dihydroxy-5-nitrophenyl)-(3-fluoro-5-hydroxyphenyl)methanone] | – | 44 (≈ 150 µM) | 45 (≈ 153 µM) | 45 (≈ 153 µM) | – |
| Cc1ccc(C(=O)c2cc(O)c(O)c([N+](=O)[O-])c2)cc1 [tolcapone, 3,4-dihydroxy-4′-methyl-5-nitrobenzophenone, reference compound] | – | 56 (≈ 205 µM) | 56 (≈ 205 µM) | 55 (≈ 201 µM) | no adverse events were registered |

— publication PMC9661476 (Journal of Medicinal Chemistry, 2022)
